SMILES strings stand for the structures.

The inhibition is the share of the control response that was lost under treatment.

Test [1] deals with PMA-induced release of endogenous IL-6R from human THP-1 monocytic cells. In words: ELISA-based IL-6R release assay, PMA-induced, THP-1 cells. To be noted: PMA 25 ng/ml, 1 hour, recombinant murine antibodies and IgG at 1 μg/ml, Batimastat at 10 μM. It counts as cell-based. On the procedure: In brief, on day 1, Nunc black MaxiSorp® 96-well plates (Thermo Fisher Scientific, USA) were coated for 7 hours with 100 μl per well of mouse anti-human IL-6R capture antibody (provided as part of the DuoSet ELISA kit) at 2 μg/ml TBS at room temperature. Capture antibody solution was removed and MaxiSorp® plates were blocked with 300 μl per well of TBS, 1% BSA at room temperature for 1.5 hours. Meanwhile, 40,000 THP-1 (American Type Culture Collection, USA) cells in 80 μl of normal growth medium were seeded in each well of Greiner CELLSTAR V-bottom 96-well plates (Thermo Fisher Scientific, USA) and pre-incubated with 20 μl per well of standard growth medium supplemented with Batimastat (BB94, Abcam, UK) at 50 μM as positive control (for a final concentration of 10 μM in the resulting 100 μl sample volume), mouse IgG antibody (Thermo Fisher Scientific, USA) at 5 μg/ml as isotype control (for a final concentration of 1 μg/ml in the resulting 100 μl sample volume) or antibodies of the invention at 5 μg/ml (for a final concentration of 1 μg/ml in the resulting 100 μl sample volume) at 37° C., 5% CO2 for 30 minutes. […] Using an infinite M1000 (Tecan Group, Switzerland) microplate reader, the fluorescence of each well was collected at an excitation wavelength of 435 nm and an emission wavelength of 555 nm.
(In general: An ELISA detects its analyte on a solid surface through an enzyme-linked reagent.)

In test [2] the test system is LPS-induced release of endogenous TNFα from PBMCs from patients suffering from rheumatoid arthritis. In words: ELISA-based TNFα release assay, LPS-induced, PBMCs from RA-patients. As to conditions: PBMC; LPS 1 ng/ml, 1.5 hours; chimeric antibodies (CHO) and human IgG at 1 μg/ml; Batimastat at 10 μM. It counts as cell-based. On the procedure:
In brief, on day 1, Nunc black MaxiSorp® 96-well plates (Thermo Fisher Scientific, USA) were coated overnight with 100 μl per well of mouse anti-human TNFα capture antibody (provided as part of the DuoSet ELISA kit) at 4 μg/ml TBS at 4° C. On day 2, the capture antibody solution was removed and MaxiSorp® plates were blocked with 300 μl per well of TBS, 1% BSA at room temperature for 3 hours. Meanwhile, 20,000 PBMC from patients suffering from rheumatoid arthritis (STEMCELL Technologies, Canada) cells in 80 μl of normal growth medium were seeded in each well of Greiner CELLSTAR V-bottom 96-well plates (Thermo Fisher Scientific, USA) and pre-incubated with 20 μl per well of standard growth medium supplemented with Batimastat (BB94, Abcam, UK) at 50 μM as positive control (for a final concentration of 10 μM in the resulting 100 μl sample volume), human IgG antibody (Thermo Fisher Scientific, USA) at 5 μg/ml as isotype control (for a final concentration of 1 μg/ml in the resulting 100 μl sample volume) or antibodies of the invention at 5 μg/ml (for a final concentration of 1 μg/ml in the resulting 100 μl sample volume) at 37° C., 5% CO2 for 30 minutes. […] Using an infinite M1000 (Tecan Group, Switzerland) microplate reader, the fluorescence of each well was collected at an excitation wavelength of 435 nm and an emission wavelength of 555 nm.

On to `CNC(=O)[C@H](Cc1ccccc1)NC(=O)[C@H](CC(C)C)[C@H](CSc1cccs1)C(=O)NO` [Batimastat], for which the inhibition at 10 µM in test [1] came to 88.6%; in test [2] it was 99.9%.

The record behind these values is patent publication US20240287172A1, “PROTEIN BINDERS TO IRHOM2 EPITOPES” (SCIRHOM GMBH, priority 2019, published 2024).
